Data on 17 molecules can be found in patent US20250059196A1 (SHANGHAI HANSOH BIOMEDICAL CO., LTD., priority 2021, published 2025).

What is called AUC(0-inf) is total exposure, with the tail of the curve extrapolated. Usually half-life stands for the time in which the quantity being followed falls by half. Low readings indicate fast loss, high ones slow loss. A word on the AUC(0-t): it is exposure summed from dosing to a finite time, without extrapolation to infinity. One may read the Cmax as the peak of the concentration-time curve. The term MRT denotes the average time that molecules of a dose stay in the body. The term Tmax denotes the time from dosing to the highest level.

For data set [1], the target named is Recombinant human MALT1/MLT protein (Homo sapiens (Human), UniProt Q9UDY8). In words: Inhibitory effect on MALT1 enzyme activity (Ac-LRSR-AMC substrate, fluorescence 460 nm). It is filed as biochemical. As to conditions: 10 nM FL MALT1, Ac-LRSR-AMC substrate, 50 min pre-incubation, 4 h reaction. The procedure: Ac-LRSR-AMC was used as the substrate to test the IC50 of the inhibitory activity of compounds on MALT1 enzyme activity at their Km concentration.
Recombinant human MALT1/MLT protein, sequence (Q9UDY8 whole entry): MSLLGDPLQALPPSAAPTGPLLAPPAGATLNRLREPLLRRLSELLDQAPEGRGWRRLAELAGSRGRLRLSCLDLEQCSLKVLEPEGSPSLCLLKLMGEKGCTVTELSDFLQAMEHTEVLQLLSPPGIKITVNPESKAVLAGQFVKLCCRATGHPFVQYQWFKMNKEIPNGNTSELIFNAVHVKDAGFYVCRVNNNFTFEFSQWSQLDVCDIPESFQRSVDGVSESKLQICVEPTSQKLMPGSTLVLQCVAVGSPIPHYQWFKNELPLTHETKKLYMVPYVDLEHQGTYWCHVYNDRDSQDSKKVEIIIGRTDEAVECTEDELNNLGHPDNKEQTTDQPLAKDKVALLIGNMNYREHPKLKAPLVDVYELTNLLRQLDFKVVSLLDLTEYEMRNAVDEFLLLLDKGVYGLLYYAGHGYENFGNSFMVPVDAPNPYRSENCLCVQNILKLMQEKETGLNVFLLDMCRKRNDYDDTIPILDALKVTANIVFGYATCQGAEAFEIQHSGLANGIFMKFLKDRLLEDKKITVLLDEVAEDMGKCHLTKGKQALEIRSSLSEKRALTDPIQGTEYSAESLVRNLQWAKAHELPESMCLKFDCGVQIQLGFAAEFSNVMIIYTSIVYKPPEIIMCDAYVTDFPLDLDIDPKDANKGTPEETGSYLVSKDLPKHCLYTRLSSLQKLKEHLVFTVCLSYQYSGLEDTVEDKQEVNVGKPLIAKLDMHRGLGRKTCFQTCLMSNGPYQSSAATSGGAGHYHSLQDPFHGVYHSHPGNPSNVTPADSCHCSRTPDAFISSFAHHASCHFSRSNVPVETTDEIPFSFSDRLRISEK
Ac-LRSR-AMC was used as the substrate which was digested by MALT1 to produce products, which produced fluorescence that could be detected at 460 nm. The highest concentration of the compound detected was 1000 nM, 3-fold dilution, a total of 11 concentrations (1000 nM-0.017 nM). The reaction system is 10 nM FL MALT1 protein, […] Ac-LRSR-AMC, 50 mM Tris pH 7.5, 0.6M Citrate, 1 mM DTT, 1 mM EDTA, 0.05% BSA and 1.5% DMSO. The compound and the enzyme were pre-incubated at room temperature for 50 min. The substrate was then added and the reaction was carried out for 4 h.
The original data (460 nm reading) was calculated according to the following formula to obtain the inhibition rate.
(§1) Log(inhibitor) vs. response—Variable slope (four parameters) in GraphPad Prism 6 was used to perform fitting equation analysis on compound concentration and corresponding inhibition rate, the curve was fit and compound IC50 value was obtained.
(§2) The fitting calculation equation is Y=Bottom+(Top−Bottom)/(1+10^((Log IC50−X)*HillSlope))

In a further data set the test system is OCI-Ly3 cells. The experiment in a line: Inhibition of proliferation of OCI-Ly3 cells (CellTiter-Glo). It is filed as cell-based, human. The settings on record: 96 h incubation, read-out: Inhibition test of proliferation of OCI-Ly3 cells IC50. The procedure: The compound's inhibitory effect on the proliferation of TMD8 and OCI-Ly3 cells was evaluated through cell proliferation inhibition experiments.
The compound's inhibitory effect on the proliferation of TMD8 and OCI-Ly3 cells was detected by the CellTiter-Glo method. The highest concentration of the compound detected was 1000 nM, 3-fold dilution, a total of 9 concentrations (1000 nM-0.15 nM). After the cells were plated at an appropriate density, compounds were added the next day and incubated for 96 h before detection using the CellTiter-Glo Luminescent detection kit.
as §1, §2
Background: In ATP-based viability assays light output follows the ATP content of the culture.

In data set [2] the target is MALT1 protease activity in TMD8 cells (substrate BCL-10) (Homo sapiens (Human), UniProt Q9UDY8). The experiment in a line: Intracellular MALT1 protease activity detection (BCL-10 ELISA in TMD8 cells). The class given is cell-based. The settings on record: undigested BCL-10 by ELISA, 30 min compound then 2 h stimulation cocktail, read-out: Bcl10 TMD8 IC50. The procedure: By detecting the digestion level of the substrate BCL-10 by MALT1 in TMD8 cells, the inhibitory effect of the compound on MALT1 protease activity in the cellular environment was tested.
MALT1 protease activity in TMD8 cells (substrate BCL-10), sequence (Q9UDY8 whole entry): as above
The ELISA sandwich method was used to detect the content of undigested BCL-10 protein in cells and determine the inhibitory effect of compounds on intracellular MALT1 protease activity. The highest concentration of the compound detected was 10000 nM, 3-fold dilution, a total of 9 concentrations (10000 nM-1.5 nM). Cells were plated at an appropriate density. Compounds of corresponding concentrations were first added for action for 30 min, and then eBioscience cell stimulation cocktail was added to stimulate the cells for 2 h. Cell lysate was then collected. The cell lysate was added to the assay plate previously coated with recombinant BCL-10 antibody (Abcam, #Ab33905) and incubated at 4° C. overnight. The next day, BCL-10 detection antibody (Santacruz, #Sc-5273HRP) was added and incubated for 2 h, TMB substrate was used for color development for about 30 min, then the color development was terminated, and a microplate reader was used for detection.
2) Curve fitting: Log(inhibitor) vs. response—Variable slope (four parameters) in GraphPad Prism 6 was used to perform fitting equation analysis on compound concentration and corresponding inhibition rate, the curve was fit and compound IC50 value was obtained.
as §2
On the technique in general: An ELISA detects its analyte on a solid surface through an enzyme-linked reagent.

Data set [3] is described as follows: Pharmacokinetics of oral administration in Balb/C mice. It is filed as in vivo. As to conditions: male, mouse, po, 30 mg/kg, P.O., plasma; for AUC(0-t): read-out: AUC 0-t; for Cmax: read-out: Cmax; for Tmax: read-out: Tmax. The procedure:
Balb/C mice were used as test animals to study the pharmacokinetic behavior of the compound in the plasma of mice after oral administration at a dose of 30 mg/kg.
3 Balb/C mice (3/example), male, from Shanghai Jiesijie Experimental Animal Co., Ltd., animal production license number (SCXK (Shanghai) 2013-0006 N0.311620400001794).
3 Balb/C mice, male; p.o. respectively at a dose of 30 mg/kg and an administration volume of 10 mL/kg after the mice were fasted overnight.
Before and after administration of mice, 0.1 mL of blood was collected from the orbit at 0, 0.5, 1, 2, 4, 6, 8 and 24 h, and placed in EDTA-K2 test tubes, which was centrifuged at 6000 rpm at 4° C. for 6 min to separate plasma which was stored at −80° C.
• 1) 160 μL of acetonitrile was added to 40 μL of plasma sample for precipitation, and same was mixed and centrifuged at 3500×g for 5 to 20 min. • 2) 100 μL of the treated supernatant solution was taken and subjected to LC/MS/MS to analyze the concentrations of the test compounds.
• Liquid phase conditions: Shimadzu LC-20AD pump • Mass spectrometry conditions: AB Sciex API 4000 mass spectrometer • Chromatographic column: Phenomenex Gemiu 5 um C18 50×4.6 mm • Mobile phase: liquid A is 0.1% aqueous formic acid solution, liquid B is acetonitrile • flow rate: 0.8 mL/min • Elution time: 0-4.0 min, the eluent is as follows:
The main pharmacokinetic parameters were calculated using WinNonlin 8.2.

Like-named read-outs stand apart in the source and are kept apart here.

In the case of `O=C(Nc1cnc(-n2cccn2)c(Cl)c1)c1cnn(-c2ccc3c4c(cccc24)C(=O)N3)c1C(F)(F)F` [Example 44], the IC50 was 80 nM in data set [1] and 149 nM with OCI-Ly3 cells.

For `O=C(Nc1cnc(-n2cccn2)c(C(F)(F)F)c1)c1cnn(-c2ccc3c4c(cccc24)C(=O)N3)c1C(F)(F)F` [Example 31, N-(6-(1H-pyrazol-1-yl)-5-(trifluoromethyl)pyridin-3-yl)-1-(2-carbonyl-1,2-dihydrobenzo[cd]indol-6-yl)-5-(trifluoromethyl)-1H-pyrazole-4-carboxamide], in the data set with OCI-Ly3 cells (Homo sapiens), the IC50 was found to be 206 nM. In data set [2], the IC50 came out at 103 nM. Besides, in data set [3], the AUC(0-inf) stood at 197 µg·h/mL, the half-life was 1.9 h, the AUC(0-t) stood at 197 µg·h/mL and the Cmax stood at 25900 ng/mL. For the same molecule, the Tmax in data set [3] is 2 h. In addition, the MRT in data set [3] (read-out: MRT) is 4.7 h.

For the molecule `N#Cc1ccnn1-c1ncc(NC(=O)c2cnn(-c3ccc4c5c(cccc35)C(=O)N4)c2C(F)(F)F)cc1C(F)(F)F` [Example 32], the IC50 with OCI-Ly3 cells (Homo sapiens) came out at 266 nM.

Regarding `Cc1ncnn1-c1ncc(NC(=O)c2cnn(-c3ccc4c5c(cccc35)C(=O)N4)c2C(F)(F)F)cc1Cl` [Example 47], in data set [1], the IC50 is 123 nM.

Turning to `O=C(Nc1cnc(-n2nccn2)c(C(F)(F)F)c1)c1cnn(-c2ccc3c4c(cccc24)C(=O)N3)c1C(F)F` [Example 66, N-(6-(2H-1,2,3-triazol-2-yl)-5-trifluoromethylpyridin-3-yl)-5-difluoromethyl-1-(2-oxo-1,2-dihydrobenzo[cd]indol-6-yl)-1H-pyrazole-4-carboxamide], the figures for the IC50 (in data set [1]; with OCI-Ly3 cells (Homo sapiens)) were 193 nM and 87 nM, respectively.

In the case of `O=C(Nc1ccnc(C(F)(F)F)c1)c1cnn(-c2ccc3c4c(cccc24)OC3)c1C(F)(F)F` [Example 15, 1-(2H-naphthalene [1,8-bc]furan-5-yl)-5-trifluoromethyl-N-(2-trifluoromethyl-pyridin-4-yl)-1H-pyrazole-4-carboxamide], the IC50 in data set [1] was 169 nM.

As for `O=C(Nc1ccc(-n2nccn2)c(C(F)(F)F)c1)c1cnn(-c2ccc3c4c(cccc24)C(=O)N3)c1C(F)(F)F` [Example 50, N-(4-(2H-1,2,3-triazol-2-yl)-3-(trifluoromethyl)phenyl)-1-(2-oxo-1,2-dihydrobenzo[cd]indol-6-yl)-5-(trifluoromethyl)-1H-pyrazole-4-carboxamide], the IC50 in data set [1] came out at 39 nM. The IC50 with OCI-Ly3 cells (Homo sapiens) is 219 nM. Also, in data set [3], the AUC(0-t) was 54.4 µg·h/mL, the Cmax was 3020 ng/mL and the time to peak (Tmax) was determined as 8 h.

With `O=C(Nc1cnc(-c2ncco2)c(C(F)(F)F)c1)c1cnn(-c2ccc3c4c(cccc24)C(=O)N3)c1C(F)(F)F` [Example 34, N-(6-(oxazol-2-yl)-5-(trifluoromethyl)pyridin-3-yl)-1-(2-carbonyl-1,2-dihydrobenzo[cd]indol-6-yl)-5-(trifluoromethyl)-1H-pyrazole-4-carboxamide], the IC50 in the data set on OCI-Ly3 cells (Homo sapiens) is 212 nM.

As for `O=C(Nc1ccc(-n2nccn2)c(C(F)(F)F)c1)c1cnn(-c2cnc3c4c(cccc24)C(=O)N3)c1C1CC1` [Example 83, N-(4-(2H-1,2,3-triazol-2-yl)-3-(trifluoromethyl)phenyl)-5-cyclopropyl-1-(2-oxo-1,2-dihydropyrrolo[4,3,2-ij]isoquinolin-6-yl)-1H-pyrazole-4-carboxamide], the IC50 in data set [1] is 50 nM.

As for `N#Cc1cc(-n2ncc(C(=O)Nc3ccnc(C(F)(F)F)c3)c2C(F)(F)F)c2cccc3c2c1NC3=O` [Example 92, 1-(8-cyano-2-carbonyl-1,2-dihydrobenzo[cd]indol-6-yl)-5-(trifluoromethyl)-N-(2-(trifluoromethyl)pyridin-4-yl)-1H-pyrazole-4-carboxamide], the IC50 in the data set with OCI-Ly3 cells (Homo sapiens) turned out to be 128 nM.

Take `O=C(Nc1ccc(-n2cccn2)c(C(F)(F)F)c1)c1cnn(-c2cnc3c4c(cccc24)C(=O)N3)c1C(F)(F)F` [Example 74, N-(4-(1H-pyrazol-1-yl)-3-(trifluoromethyl)phenyl)-1-(2-carbonyl-1,2-dihydropyrrolo[4,3,2-ij]isoquinolin-6-yl)-5-(trifluoromethyl)-1H-pyrazole-4-carboxamide]: in the data set with OCI-Ly3 cells (Homo sapiens), the IC50 came to 234 nM.

As for `Cn1ccc(-c2ncc(NC(=O)c3cnn(-c4ccc5c6c(cccc46)C(=O)N5)c3C(F)(F)F)cc2C(F)(F)F)n1` [Example 37, N-(6-(1-methyl-1H-pyrazol-3-yl)-5-(trifluoromethyl)pyridin-3-yl)-1-(2-oxo-1,2-dihydrobenzo[cd]indol-6-yl)-5-(trifluoromethyl)-1H-pyrazole-4-carboxamide], the IC50 in data set [1] was found to be 48 nM.

For the molecule `O=C(Nc1ccc(-n2cccn2)c(C(F)(F)F)c1)c1cnn(-c2ccc3c4c(cccc24)C(=O)N3)c1C(F)(F)F` [Example 51, N-(4-(1H-pyrazol-1-yl)-3-(trifluoromethyl)phenyl)-1-(2-carbonyl-1,2-dihydrobenzo[cd]indol-6-yl)-5-(trifluoromethyl)-1H-pyrazole-4-carboxamide], in the data set on OCI-Ly3 cells (Homo sapiens), the IC50 was 83 nM.

Consider `Cc1nc(-c2ncc(NC(=O)c3cnn(-c4ccc5c6c(cccc46)C(=O)N5)c3C(F)(F)F)cc2C(F)(F)F)oc1C` [Example 35, N-(6-(4,5-dimethyloxazol-2-yl)-5-(trifluoromethyl)pyridin-3-yl)-1-(2-carbonyl-1,2-dihydrobenzo[cd]indol-6-yl)-5-(trifluoromethyl)-1H-pyrazole-4-carboxamide], for which, in the data set on OCI-Ly3 cells (Homo sapiens), the IC50 was determined as 263 nM.

Consider `O=C(Nc1cnc(-n2nccn2)c(Cl)c1)c1cnn(-c2ccc3c4c(cccc24)C(=O)N3)c1C(F)F` [Example 67, N-(6-(2H-1,2,3-triazol-2-yl)-5-chloropyridin-3-yl)-5-difluoromethyl-1-(2-oxo-1,2-dihydrobenzo[cd]indol-6-yl)-1H-pyrazole-4-carboxamide], for which, in data set [1], the IC50 turned out to be 48 nM.

For `O=C(Nc1cnc(-n2nccn2)c(C(F)(F)F)c1)c1cnn(-c2cnc3c4c(cccc24)C(=O)N3)c1C1CC1` [Example 78, N-(6-(2H-1,2,3-triazol-2-yl)-5-(trifluoromethyl)pyridin-3-yl)-5-cyclopropyl-1-(2-oxo-1,2-dihydropyrrolo[4,3,2-ij]isoquinolin-6-yl)-1H-pyrazole-4-carboxamide], the IC50 in data set [2] was 67 nM.

Take `Cn1cnc(-c2ncc(NC(=O)c3cnn(-c4ccc5c6c(cccc46)C(=O)N5)c3C(F)(F)F)cc2Cl)n1` [Example 45]: the IC50 in data set [1] stood at 123 nM.
